Experimental data published in US6110895A, “Method of promoting healing in skin grafts” (University of Southern California, priority 1997, dated 2000).

How the values were obtained:
[1] = test system: full thickness dermal wounds; assay: Wound closure by analogs of AII and AIII, Table 4 (Example 7); type: in vivo, Sprague Dawley rats; conditions: percentage of vehicle-treated control wound, method of Example 6 (100 μg/wound, days 0-4)
From the text: Female Sprague Dawley rats weighing 175-200 grams were obtained from Simonsen Laboratories (Gilroy, Calif.). On the day of surgery, rats received intramuscular ketamine/rompum anesthesia prior to preparation for surgery. The rats were shaved and scrubbed with betadine. Two 1.5×1.5 cm full thickness dermal wounds were created on the dorsal surface of each rat. Following excision of the skin, the size of the wound was outlined on a glass slide to establish the baseline wound size. The medicament was administered in 100 μl of 10% low viscosity carboxymethyl cellulose (Sigma). The p-NH2 -Phe6-AII test material was administered in a randomized fashion with all materials being tested at 100 μg/wound. Control wounds were treated with vehicle only. After administration of the materials, the rats were bandaged and allowed to recovery from anesthesia. The rats were treated with an additional 100 μg of peptide formulation on days 1-4 after surgery. On days 2, 4, 7 and 9 the area of the skin wounds were measured under methoxyflurane anesthesia. The area of the wound was determined by: (1) tracing the wound shape onto graph paper (1×1 mm squares); (2) cutting out the shape; (3) weighing the paper and comparing the weight with a 1.5×1.5 cm paper cutout; and (4) counting the number of squares on the graph paper. In addition, on days 2, 4 and 7 the area of granulation tissue was similarly determined.
Analogs of AII and AIII having the structures disclosed in Table 4 were prepared using an automated peptide synthesizer and methods familiar to those having ordinary skill in the art. Each of the analogs was tested for its ability to accelerate wound healing essentially according to the method of Example 6. Results of procedures used to determine the extent of wound closure at days 4 and 9 measured as a percentage of a vehicle-treated control wound are also presented in Table 4. Since all of the analogs were not tested during the same experimental procedure, AII was included as a positive control for each group of peptides tested. As designated below, peptide analogs are identified as analogs of AII or AIII having amino acid substitutions at positions indicated by superscripts. Thus, for example, Gly^4 -AIII is the designation for an AIII analog having a Gly residue substituted at position 4 of AIII. Results from procedures using analogs that were tested as a group are grouped together in the following Table.

[2] = test system: full thickness dermal wounds; assay: Healing of full thickness dermal wounds with AIII (Example 3); type: in vivo, Sprague Dawley rats; conditions: 2×2 cm wounds; 3 μg and 10 μg dosages; FIG. 8
From the text: Twelve week old male Sprague Dawley rats were obtained from Simonsen Laboratories (Gilroy, Calif.). On the date of surgery, rats received intramuscular ketamine/rompum anesthesia prior to preparation for surgery. The rats were shaved and scrubbed with betadine. Four 2×2 cm full thickness dermal wounds were created on the dorsal surface of the rat. Following excision of the skin, the size of the wound was outlined on a glass slide to establish the baseline wound size. The medicament was administered in 100 μl of a solution comprising 10% HYDRON, 1% polyethylene glycol (MW 400) and 60% ethanol. Test materials were administered in a randomized fashion. AIII was evaluated at 3 and 10 μg/wound. Controls were treated with vehicle only. After administration of the materials, the rats were bandaged and allowed to recover from anesthesia. At days 2, 5, 6, 8 and 10 the area of the skin wounds were measured under methoxyflurane anesthesia. The area of the wound was determined by: (1) tracing the wound shape onto graph paper (1×1 mm squares); (2) cutting out the shape; (3) weighing the paper and comparing the weight with a 2×2 cm paper cutout; and (4) counting the number of squares.

[3] = cited from earlier work
rat carotid artery = conditions: cited from earlier work; for neointimal formation: similar model, Janiak et al. 1992, CGP 42112 infused perivascularly 14 days, losartan low doses
[4] = intracerebroventricular infusion at concentrations 1,000 times higher than that of AII; cited from earlier work
aminopeptidase = conditions: reported in literature; cited from earlier work

With homoSer^4 -AII [GSD41B] the “extent of wound closure, % Control (Day 4)” value [1] was 77.6% and the “extent of wound closure, % Control (Day 9)” value [1] was 55.8%.

With `CC[C@H](C)[C@H](NC(=O)[C@H](Cc1ccc(O)cc1)NC(=O)[C@@H](NC(=O)[C@@H](N)CCCNC(=N)N)C(C)C)C(=O)N[C@@H](Cc1c[nH]cn1)C(=O)N1CCC[C@H]1C(=O)N[C@@H](Cc1ccccc1)C(=O)O` [AIII, Arg-Val-Tyr-Ile-His-Pro-Phe] the “wound closure relative to vehicle-treated control” value [2] was “substantially accelerated”.

In the case of “Asp-Arg-Val-Tyr-Ile-His-Pro (DRVYIHP; printed: Asp-Arg-Val-Tyr-Ile-His-Pro) [AII(1-7)]”, the “amount needed for pressor response comparable to AII” value ([3]; Benter et al. 1993) is given as “about 10,000 times” and the “dose effective on blood pressure relative to the dose of AII” value ([3]; depending on model and route of administration) is given as 10,000-100,000 times.

In the case of `CCCCc1nc(Cl)c(CO)n1Cc1ccc(-c2ccccc2-c2nn[nH]n2)cc1` [losartan], the “decrease of intimal area” value (rat carotid artery; Pratt et al. 1992) is given as 95%, the “neointimal formation, higher doses” value (rat carotid artery; other studies, losartan at higher doses) is given as “effective” and the neointimal formation (rat carotid artery) is given as “ineffective”.

In the case of “Ile-His-Pro-Phe (IHPF; printed: Ile-His-Pro-Phe) [AII(5-8)]”, the “effect on blood pressure” value [4] is given as “minimal effect on blood pressure”.

In the case of CGP 42112, the neointimal formation (rat carotid artery) is listed as “prevented neointimal formation”.

In the case of `CC[C@H](C)[C@H](NC(=O)[C@H](Cc1ccc(O)cc1)NC(=O)[C@@H](NC(=O)[C@H](CCCNC(=N)N)NC(=O)CNC)C(C)C)C(=O)N[C@@H](Cc1cnc[nH]1)C(=O)N1CCC[C@H]1C(=O)N[C@@H](Cc1ccccc1)C(=O)O` [Analog 4, Sar-Arg-Val-Tyr-Ile-His-Pro-Phe], the cleavage by aminopeptidase (aminopeptidase) is listed as “resistant to cleavage by aminopeptidase”.

For `Cc1cc(Cn2cnc3c2C[C@@H](C(=O)O)N(C(=O)C(c2ccccc2)c2ccccc2)C3)ccc1N(C)C` [PD 123319], the “reduction of intimal hyperplasia” value (rat carotid artery; Pratt et al. 1992) is listed as 73%.

For “Asp-Arg-Val-Tyr(PO3)2 -Ile-His-Pro-Phe [[Tyr(PO3)2]^4 -AII]”, the “extent of wound closure, % Control (Day 4)” value [1] was 81.3% and the “extent of wound closure, % Control (Day 9)” value [1] was 61.9%.
